Patent US20200369674A1, “ANTI-PAIN COMPOUND AND PREPARATION METHOD THEREOF” (LUNAN PHARMACEUTICAL GROUP CORPORATION, priority 2017, published 2020)

Experiments:
ICR mice [1] = assay: Xylene-induced mouse ear swelling test (Effect Example 4); assay type: in vivo; details: Mus musculus, po, 2 h; 1 mg/kg intragastric, 50 uL xylene two hours after administration; read-out: Inhibition rate (%)
Procedure: (§1) ICR mice, 18-22 g, half of them being male and the other half being female, provided by the Department of Laboratory Animals, Peking University (License No.: SCXK (Beijing) 2016-0010).
ICR mice were randomly grouped, 8 mice per group, half of them being male and the other half being female. Vehicle control group (double-distilled water) and groups for samples to be tested (the compounds and doses thereof were shown in Table 4). All drugs were dissolved in double-distilled water immediately before administration, and given by intragastric administration at predetermined doses. Two hours after administration, 50 uL of xylene was smeared evenly on the inner and outer sides of right ear of mouse. After 30 minutes, the left and right ears of mouse were cut, and circular ear pieces of the same size were punched at the same position on the left and right ears, and weighed. The ear swelling inhibition rate of compound in mice was calculated according to the formula.
Inhibition rate %=(degree of ear swelling in vehicle control group−degree of ear swelling in test group)/degree of ear swelling in vehicle control group×100

CCI rats = assay: Mechanical stimulation paw withdrawal threshold (MWT) in CCI rats; assay type: in vivo, SD rats; details: for inhibition rate (absolute %): PTE % vs vehicle; for MWT: mean±SEM; for inhibition rate (relative %): relative to sham minus vehicle
Procedure: SD rats, body weight 180 g-220 g, half of them being male and the other half being female, provided by the Department of Laboratory Animals, Peking University. The rats were raised in a standard environment with temperature of 22±0.5° C. and relative humidity of 55±5%, 12 h/12 h light-dark cycle, and fed with standard feed.
Rat was anesthetized with pentobarbital sodium (60 mg/kg, i.p.), the right hind limb was surgically shaved, fixed in the prone position, a longitudinal incision was made along the middle of the right hind limb of the rat, the muscle was bluntly separated, the sciatic nerve was exposed, and the sciatic nerve bifurcate proximal end was loosely ligated with 4-0 silk suture for 4 times, with an interval of about 1 mm each time, in which the degree of tightness was suitable when it was observed that the right hind leg was slightly shaken. After ligation, the muscle and skin were sutured in sequence. For the sham-operated group, the sciatic nerve was only exposed, but not ligated. The success of modeling was determined by observing whether the hind limb of the rat's operation side was closed, slightly valgus and often vacated, and by measuring the mechanical stimulation paw withdrawal threshold and the thermal stimulation paw withdrawal latency of the rat.
Before surgery, the mechanical stimulation paw withdrawal thresholds and the thermal stimulation paw withdrawal latencies in the rats were determined, and the rats were grouped as: sham operation group (sham), vehicle group (double-distilled water, i.g.), DXL-A-22 group (2 mg/kg, i.g.), DXL-A-24 group (1 mg/kg, i.g.), and Gabapentin group (100 mg/kg, i.g.). All compounds and drugs were dissolved in double-distilled water, and given by intragastric administration at 1 mL/100 g. From the first day after surgery, the administration was carried out every day, and the mechanical stimulation paw withdrawal threshold and the thermal stimulation paw withdrawal latency were measured 2 hours after administration.
The mechanical stimulation paw withdrawal threshold (MWT) of rats was detected by von Frey electronic pain tester. The measurement was carried out on the days 5, 7 and 14 after operation. The rats were placed in a transparent plexiglass box (whose bottom was a wire mesh with a gap of 1 mm^2) to adapt to the environment for 30 min. After the rats had no exploration action, the von Frey electronic pain tester was used to stimulate the middle position of paw at the operation side of the rat, and the maximum force caused by rat paw withdrawal response (i.e., MWT) was recorded. The inhibition rate of the compound was calculated according to the following formula:
Absolute increase rate (i.e., PTE %): PTE %=(MWT of test group−MWT of vehicle group)/MWT of vehicle group×100 (1)
Relative increase rate: Inhibition rate %=(MWT of test group−MWT of vehicle group)/(MWT of Sham operation group−MWT of vehicle group)×100 (2)

ICR mice [2] = assay: Hot plate test; assay type: in vivo; details: Mus musculus, po; 1 mg/kg intragastric, latency 2.0 hours after administration, hot plate 55° C.; read-out: PTE %
Procedure: as §1
The temperature of hot plate was adjusted to 55° C., and the responses of mouse such as licking hind feet and jumping were used as the observation indexes. The time from the placement of mice on copper plate to the appearance of the above responses was defined as latency time. The latency time was measured for three times 30 minutes before administration, and the average value thereof was used as basic threshold, or baseline latency (BL). The animals with a latency time greater than 15 s and less than 5 s were removed, and the residual mice were randomly grouped, 8 animals per group.
Vehicle control group (double-distilled water) and groups for samples to be tested (the compounds and doses thereof were shown in Table 1) were set. All drugs were dissolved in […] before administration, and given by intragastric administration. The latency time was measured 2.0 hours after administration. Percentage of Pain Threshold Elevated Rate (PTE %) of compound on mice was calculated according to the following formula:
PTE %=(latency time of test group−latency time of vehicle control group)/latency time of vehicle control group×100

ICR mice [3] = assay: Formalin experiment; assay type: in vivo; details: Mus musculus, po, 2 h; 1 mg/kg intragastric, 2.5% formalin two hours after administration, phase II 10-60 minutes; read-out: Phase II pain inhibition rate (%)
Procedure: as §1
ICR mice, half of them being male and the other half being female, were randomly grouped, 8 mice per group. Vehicle control group (double-distilled water) and groups for samples to be tested were set, in which the compounds and doses thereof were shown in Table 3. All drugs were dissolved in double-distilled water before administration, and given by intragastric administration at predetermined doses. Two hours after administration, the mice were injected with 20 ul of 2.5% formalin solution in the right hind foot, and the time (s) of licking or biting foot was recorded as an index of pain response, in which 0-5 minutes was phase I, 10-60 minutes was phase II, and the total observation time was 60 minutes. The phase II pain inhibition rate of compound in mice was calculated according to the following formula:
Inhibition rate %=(time of licking or biting foot in vehicle control group−time of licking or biting foot in test group)/time of licking or biting foot in vehicle control group×100

[4] = 2 mg/kg i.g. daily, Day 5 after operation, section 3.1
[5] = 2 mg/kg i.g. daily, Day 7 after operation, section 3.1
[6] = 2 mg/kg i.g. daily, Day 14 after operation, section 3.1
[7] = 1 mg/kg i.g. daily, Day 5 after operation, section 3.3
[8] = 1 mg/kg i.g. daily, Day 7 after operation, section 3.3
[9] = 1 mg/kg i.g. daily, Day 14 after operation, section 3.3

Br.Brc1ccc(N2CC[N+]3(CCCC3)CC2)cc1 [DXL-A-22, 8-(4-bromophenyl)-5,8-diazaspiro[4.5]decan-5-ium bromide]
inhibition in vivo at 1 mg/kg (ICR mice [1]): 47% | inhibition rate (absolute %) (CCI rats; [4]): 76.88% | MWT (CCI rats; [4]): 19.28 ± 1.44**/ | inhibition rate (relative %) (CCI rats; [4]): 31.01% | inhibition rate (absolute %) (CCI rats; [5]): 116.83% | MWT (CCI rats; [5]): 22.16 ± 0.79**/ | inhibition rate (relative %) (CCI rats; [5]): 43.18% | inhibition rate (absolute %) (CCI rats; [6]): 108.81% | MWT (CCI rats; [6]): 22.05 ± 0.74**/ | inhibition rate (relative %) (CCI rats; [6]): 41.26% | change in vivo at 1 mg/kg (ICR mice [2]): 52.6% | inhibition in vivo at 1 mg/kg (ICR mice [3]): 52.6%

FC(F)(F)c1ccc(N2CC[N+]3(CCCC3)CC2)cc1.[Br-] [DXL-A-24, 8-(4-(trifluoromethyl)phenyl)-5,8-diazaspiro[4.5]decan-5-ium bromide]
inhibition in vivo at 1 mg/kg (ICR mice [1]): 53.4% | inhibition rate (absolute %) (CCI rats; [7]): 75.78% | MWT (CCI rats; [7]): 20.32 ± 1.09**/ | inhibition rate (relative %) (CCI rats; [7]): 35.35% | inhibition rate (absolute %) (CCI rats; [8]): 117.94% | MWT (CCI rats; [8]): 22.84 ± 1.64**/ | inhibition rate (relative %) (CCI rats; [8]): 47.89% | inhibition rate (absolute %) (CCI rats; [9]): 75.09% | MWT (CCI rats; [9]): 20.31 ± 1.57**/ | inhibition rate (relative %) (CCI rats; [9]): 33.24% | change in vivo at 1 mg/kg (ICR mice [2]): 48.6% | inhibition in vivo at 1 mg/kg (ICR mice [3]): 50.2%
